# Source: patent US7223400B2, “Method to prepare compositions comprising yeast treated with electromagnetic energy” (Ultra Biotech Limited, priority 2003, dated 2007)
# How the values were obtained:
# [1] = test system: stomach cancer cell line S784; assay: TA2 mouse model of stomach cancer, growth of tumors; format: in vivo, TA2 mice; settings: 31st day from tumor inoculation; 30 consecutive days; AY/NY 0.3 ml oral once per day, ADM 10^5 units per kg i.v. per day
# Text: The growth of tumors in the mice was studied.
# Numerous animal studies have reported the use of murine models in the study of treating stomach cancer. Methylcholanthrene (MC) is a well-known effective trigger of stomach cancer in mice. Accordingly, this experiment used MC in designing TA2 mouse model of human stomach cancer. Detailed description of the use of methylcholanthrene to induce stomach cancer can be found in Wang X. H. et al., 1984, Chin Med J (Engl) 97(3):215–22, which is incorporated herein by reference in its entirety.
# The animals used for the experiments were TA2 mice, 6 to 8 weeks old (obtainable from the Second Military Medical University, Shanghai, China). Both male and females with an average weight of about 18 to 20 gram were used. The stomach cancer cell line S784 (obtainable from MC-treated TA2 mouse provided by the Tianjian Medical University, China) in a suspension containing about 1.2×10^7 viable tumor cells (about 0.2 ml cell culture) was injected subcutaneously into the animals.
# In group ADM, the mice were injected intravenously with 10^5 units of doxorubicin (adriamycin, ADM) per kg body weight per day.
# [2] = test system: stomach cancer cells (cell line from a DMH-induced Wistar rat stomach cancer); assay: Wistar rat model of transplanted stomach cancer, survival time; format: in vivo, Wistar rats; settings: for Number of live animals remaining in the groups after 21 days of treatment: 30 rats per group
# Method: In group 2ADM, the rats were injected intravenously with 1.5×10^5 units of doxorubicin (adriamycin, ADM) per kg body weight per day.
# [3] = test system: stomach cancer cells (cell line from a DMH-induced Wistar rat stomach cancer); assay: Wistar rat model of transplanted stomach cancer, growth of the tumor; format: in vivo, Wistar rats; settings: 22nd day from tumor inoculation; 21 consecutive days; AY/NY 0.8 ml oral once per day, ADM 10^5 units per kg i.v. per day
# Text: The growth of the tumor in the rats was studied.
# Numerous animal studies have reported the use of Wistar rats in the study of treating stomach cancer. 1,2-dimethylhydrazine (DMH) is a well-known effective trigger of stomach cancer in rats. Accordingly, this experiment used DMH in designing Wistar rat model of human stomach cancer. Detailed description of the use of 1,2-dimethylhydrazine to induce stomach cancer can be found in Watanabe H. et al., 1999, Jpn J Cancer Res. 90(11):1207–11, which is incorporated herein by reference in its entirety.
# The animals used in the experiments were Wistar rats (obtainable from the Chinese Academy of Military Medical Sciences, Beijing, China). The stomach cancer cell line (obtainable from the First Military Medical University of China, Guangzhou, China) was generated in 1991 from a Wistar rat stomach cancer which was induced by subcutaneous injection of DMH. The rats were injected subcutaneously with 2.5×10^6 stomach cancer cells per animal.
# In group AY, the rats received 0.8 ml of the biological composition once per day. In group NY, the rats received 0.8 ml of the untreated yeast cells once per day. In group ADM, the rats were injected intravenously with 10^5 units of doxorubicin (adriamycin, ADM) per kg body weight per day. In group CK1, the rats received 0.8 ml of physiological saline once per day. […]
# [4] = test system: stomach cancer cell line S784; assay: Mouse model of stomach cancer, survival time; format: in vivo, TA2 mice; settings: for Number of live animals remaining in the groups after 30 days of treatment: 30 mice per group
# Method: In group 2ADM, the mice were injected intravenously with 1.5×10^5 units of doxorubicin (adriamycin, ADM) per kg body weight per day.
# [5] = 1 month after cessation of treatment
# [6] = 2 months after cessation of treatment
# [7] = 3 months after cessation of treatment
# [8] = 4 months after cessation of treatment
# [9] = 5 months after cessation of treatment
# [10] = 6 months after cessation of treatment
# [11] = rats that survived, observed over 6 months, 1.2 ml oral or ADM 1.5×10^5 units per kg i.v. per day, 21 days
# [12] = mice that survived, observed over 6 months, 0.5 ml oral or ADM 1.5×10^5 units per kg i.v. per day
compound,measurement,setting,value
"COc1cccc2c1C(=O)c1c(O)c3c(c(O)c1C2=O)C[C@@](O)(C(=O)CO)C[C@@H]3O[C@H]1C[C@H](N)[C@H](O)[C@H](C)O1 [ADM, doxorubicin]",mean weight of mice and standard deviation,[1],19.8 ± 0.8 g
same,mean weight of stomach and standard deviation,[1],621 ± 17 mg
same,mean weight of tumor nodules and standard deviation,[1],346 ± 36 mg
same,Number of live animals remaining in the groups after 21 days of treatment,"[2]; 0 month after cessation of treatment, 1.2 ml oral or ADM 1.5×10^5 units per kg i.v. per day",30
same,Number of live animals remaining in the groups after 21 days of treatment,[2]; [5],30
same,survival of rats bearing stomach cancer cells,"[2]; 1.2 ml oral per day or ADM 1.5×10^5 units per kg per day, from injection of tumor cells",all died after four months
same,Number of live animals remaining in the groups after 21 days of treatment,[2]; [6],30
same,Number of live animals remaining in the groups after 21 days of treatment,[2]; [7],22
same,Number of live animals remaining in the groups after 21 days of treatment,[2]; [8],17
same,Number of live animals remaining in the groups after 21 days of treatment,[2]; [9],13
same,Number of live animals remaining in the groups after 21 days of treatment,[2]; [10],0
same,mean weight of rats and standard deviation,[2]; [11],all animals dead
same,mean weight of tumor nodules and standard deviation,[2]; [11],all animals dead
same,mean weight of rats and standard deviation,[3],181.8 ± 12.8 g
same,mean weight of tumor nodules and standard deviation,[3],446.4 ± 13.6 mg
same,Number of live animals remaining in the groups after 30 days of treatment,"[4]; 0 month after cessation of treatment, 0.5 ml oral or ADM 1.5×10^5 units per kg i.v. per day",30
same,survival of mice bearing stomach cancer cells,"[4]; 0.5 ml oral per day or ADM 1.5×10^5 units per kg per day, from injection of tumor cells",all died after four months
same,Number of live animals remaining in the groups after 30 days of treatment,[4]; [5],30
same,Number of live animals remaining in the groups after 30 days of treatment,[4]; [6],27
same,Number of live animals remaining in the groups after 30 days of treatment,[4]; [7],16
same,Number of live animals remaining in the groups after 30 days of treatment,[4]; [8],7
same,Number of live animals remaining in the groups after 30 days of treatment,[4]; [9],0
same,Number of live animals remaining in the groups after 30 days of treatment,[4]; [10],0
same,mean weight of mice and standard deviation,[4]; [12],all animals dead
same,mean weight of stomach and standard deviation,[4]; [12],all animals dead
same,mean weight of tumor nodules and standard deviation,[4]; [12],all animals dead
